Key:
AMPK = test: Western blot analysis of AMPK phosphorylation; assay type: cell-based; conditions: H1975 cells, 24 hours
Description: (§1) After incubating H1975 cells with D561-0775 for 24 hours, H1975 cells were harvested and washed with cold 1×PBS. Then, cells were lysed with ice-cold RIPA lysis buffer with protease and phosphatase inhibitors added to extract the cell protein extraction. The supernatants were collected by centrifugation at 12,000 g, for 5 minutes. The quantitation of total protein extraction was measured by Bio-Rad DCTM protein assay kit (Bio-Rad, Philadelphia, Pa., USA). Then 30 μg of protein was loaded and electrophoretically separated on 8% SDS-PAGE gel and then transferred to Nitrocellulose (NC) membrane. Membranes were blocked with 5% non-fat milk and […] containing 0.1% Tween-20 (TBST) for 1 hour at room temperature. After 1 hour, membranes were incubated with primary anti-bodies (1:1000 dilution) against GAPDH, total/phosphor-ACC, total-AMPK, and (1:500 dilution) against phosphor-AMPK, at 4° C. with gently shaking overnight. Membranes were washed with TBST for 3 times (5 minutes/time), and incubated with secondary fluorescent antibody (1:10000 dilutions) for 1 hour at room temperature. After rewashing the membranes with TBST for 3 times (15 minutes/time), the stripes were visualized by LI-COR Odessy scanner (Belfast, Me., USA).

H1975 cells [1] = test: Apoptosis assay (Annexin V/PI flow cytometry, morphology observation); assay type: cell-based; conditions: 48 h
Description: H1975 cells (1×10^5 cells/well) were seeded in a 6-well plate for 24 hours, and treated with the indicated concentrations of D561-0775 for an additional 48 hours at 37° C. After 48 hours, the cells were washed by ice-cold 1×PBS once and harvested by trypsination. Then cells were centrifuged, collected and re-suspended in ice-cold 1×PBS. After removing the supernatants, cell pellets were re-suspended in 100 μL 1× Annexin-binding buffer. The cells were then double-stained with Annexin-V FITC and PI (100 μg/mL) of 2 μL respectively for 15 min at room temperature in dark. After that, 300 μL 1× Annexin-binding buffer was added. Apoptotic cells were quantitatively counted by a BD Aria III Flow Cytometer (BD Biosciences, San Jose, Calif., USA)

ACC = test: Western blot analysis of ACC phosphorylation; assay type: cell-based; conditions: H1975 cells, 24 hours
Description: as §1

H1975 cells [2] = test: MTT cytotoxicity assay; assay type: cell-based; conditions: 72 h treatment, read-out: IC50 (cell proliferation, MTT)
Description: H1975 was purchased from ATCC (American type culture collection) and was cultivated with RPMI 1640 medium supplement with 10% fetal bovine serum (Gibco, Big Cabin, Oklahoma, Me., USA), 100 U/mL, penicillin and 100 μg/mL and streptomycin (Gibco, Big Cabin, Oklahoma, Me., USA). The cells were cultured in incubator with 5% CO2 at 37° C.
Cells were seeded in a 96-well microplate with 5000 cells/well confluence, and put into the incubator overnight for cell adhesion. Different concentrations of the drug D561-0775 were added with Dimethyl sulfoxide (DMSO) as vehicle control. The microplates were incubated for another 72 hours. The whole experiment was repeated in triplicate. 10 μL of MTT (5 mg/mL) solution was added to each well. The plate was placed back into the incubator for 4 hours. After that, 100 μL of resolved solution (10% SDS and 0.1 mM HCL) was added to each well. Before dissolving the formazan crystals, the microplate was put back into the incubator for another 4 hours. The absorbance of the plate was measured at 570 nm with reference at 650 nm by a microplate reader (Tecan, Morrisville, N.C., USA). Cell viability was calculated by percentages of the absorbance of the treatment group divided by the absorbance of untreated group. At least three independent experiments were performed for data analysis and presentation.

AMPK kinase = test: AMPK enzyme activity assay (CycLex AMPK Kinase Assay Kit); assay type: biochemical; conditions: indicated concentrations, n=3, ** p<0.005, ***p<0.001
From the text: The CycLex AMPK Kinase Assay Kit (CycLex Co., Ltd., Nagano, Japan) was used to detect the activation of AMPK by D561-0775. AMP was used as positive control, compound c was used as AMPK inhibitor, and AMPK kinase was used for representing the basal level.

[3] = 20 μM treatment group, **p<0.01, n=3

## N#Cc1nc(-c2ccc(COc3ccc(Br)cc3)o2)oc1NCc1cccnc1 [D561-0775]
AMPK
  phosphorylation of AMPK: activated phosphorylation of both AMPK and ACC in a dose-dependent manner
H1975 cells [1]; [3]
  percentage of apoptotic cells vs control group: significant higher percentage of apoptotic cells
  percentage of viable cells vs control group: lower percentage of viable cells
H1975 cells [1]; Annexin V/PI
  apoptosis induction (flow cytometry): induced significant level of apoptosis in a dose-dependent manner
H1975 cells [1]; morphology observation
  cell morphology: floated and rounded-up starting at 20 μM
ACC
  phosphorylation of ACC: activated phosphorylation of both AMPK and ACC in a dose-dependent manner
H1975 cells [2]
  IC50: 9.59 ± 1.73 µM
AMPK kinase
  AMPK kinase activity (fold of AMPK kinase alone group): enhanced in a dose-dependent manner
